From patent US9783852B2, “Method for assessing embryotoxicity” (priority 2008, dated 2017)
In brackets after ≈: the same amount, converted by molar mass. Like-named read-outs stand apart in the source and are kept apart here.

Tests used:
[1] = known classification of the test chemicals used; cited from earlier work
[2] = test system: Hand1-ES cells; experiment: Hand1-ES cell luciferase reporter test during myocardial differentiation; settings: for Hand1-ES ID50 (50% inhibitory concentration for differentiation): concentration at which 50% of the luciferase activity is inhibited, day 6, medium for myocardial differentiation
Description: Hand1-ES cell line was cultured while maintaining an undifferentiated state in DMEM medium containing 15% heat inactivated fetal bovine serum supplemented with LIF containing 100 μg/mL G418. The undifferentiated Hand1-ES cells were dispersed using 0.25% trypsin/1 mM EDTA, and thereafter, the cells were suspended in DMEM medium containing 15% heat inactivated fetal bovine serum. Residual trypsin was removed by centrifugation and suction of the supernatant, and the cells were suspended in DMEM medium containing 15% heat inactivated fetal bovine serum not containing LIF (hereinafter, medium for myocardial differentiation). Thereafter, the number of cells was counted using a small amount of the cell solution, and a cell suspension (medium for myocardial differentiation) was prepared so as to have a cell number of 15,000 cells/mL. The prepared cell suspensions were added with only solvent such as PBS(−) or DMSO as a solvent control or added with a test chemical prepared by diluting with solvent into several levels, and thereafter, each cell suspension was seeded in a nonadherent U-bottom 96-well plate in a volume of 50 μL, and the culture was performed for 3 days. On day 3, 50 μL of the medium for myocardial differentiation supplemented with the test chemical again prepared was added, and the suspension culture was continued for 3 days. On day 6, 100 μL of a luciferase luminescent reagent, Steady-Glo (Promega), was added to each well and shaken for 30 minutes, and thereafter, the total amount was transferred to a 96-well white plate, and the luciferase activity was measured with a TopCount NXT luminescence detection counter (Packard Japan). The obtained activity values were averaged and tallied for the solvent control group and every concentration of the test chemical.

[3] = test system: balb/c 3T3 cells cloneA31; experiment: 3T3 cell proliferation test (CellTiter-Glo); format: cell-based; settings: Mus musculus, BALB/c3T3, 144 h, read-out: 3T3 IC50 (50% inhibitory concentration for cell growth)
Description: In addition, using balb/c 3T3 cells cloneA31 obtained from ATCC (hereinafter, 3T3 cells), the effects of each test chemical on cell proliferation were evaluated by the following method. The 3T3 cells cultured in DMEM medium containing 10% heat inactivated fetal bovine serum, 2 mM glutamine, penicillin and streptomycin (medium for 3T3) in an incubator at 37° C. and 5% CO2 were dispersed using 0.25% trypsin/1 mM EDTA, and thereafter, the cells were suspended in the medium for 3T3. Residual trypsin was removed by centrifugation and suction of the supernatant, and the cells were suspended in the medium for 3T3. Thereafter, the number of cells was counted using a small amount of the cell solution, and a cell suspension was prepared so as to have a cell number of 10,000 cells/mL. The prepared cell suspensions were added with only solvent such as PBS(−) or DMSO as a solvent control or added with a test chemical prepared by diluting with solvent into several levels. Thereafter, each cell suspension was seeded in a white 96-well plate for cell culture in a volume of 50 μL, and the culture was performed for 3 days. On day 3, 50 μL of the medium for 3T3 supplemented with the test chemical again prepared was added, and the culture was continued for 3 days. On day 6, the supernatant of each well was removed by suction, then, each well was supplemented with the solution in a CellTiter-Glo™ Luminescent Cell Viability Assay kit (Promega) and shaken for 30 minutes, and thereafter, the activity was measured with a TopCount NXT luminescence detection counter. […] The activity values obtained from each test of the Hand1-ES cells and the 3T3 cells were averaged and tallied for the solvent control group and every concentration of the test chemical, and thereafter, a relative value of each concentration was calculated using the average value of the solvent control group as 100%.

[4] = day 6, CellTiter-Glo luminescence

O=c1[nH]c(=O)n([C@H]2C[C@H](O)[C@@H](CO)O2)cc1Br [5-bromo-2′-deoxyuridine]
in vivo embryotoxicity [1]: positive
Embryotoxicity assessment from comparing Hand1-ES ID50 with 3T3 IC50 [2]: has embryotoxicity
Hand1-ES ID50 (50% inhibitory concentration for differentiation) [2]: 0.12 µg/mL
IC50 [3, 4]: 0.8 µg/mL (≈ 2.61 µM)

O=c1[nH]cc(F)c(=O)[nH]1 [5-fluorouracil]
in vivo embryotoxicity [1]: positive
Embryotoxicity assessment from comparing Hand1-ES ID50 with 3T3 IC50 [2]: has embryotoxicity
Hand1-ES ID50 (50% inhibitory concentration for differentiation) [2]: 0.02 µg/mL
IC50 [3, 4]: 0.16 µg/mL (≈ 1.23 µM)

C=CC(N)=O [acrylamide]
in vivo embryotoxicity [1]: negative
Embryotoxicity assessment from comparing Hand1-ES ID50 with 3T3 IC50 ([2]; ID50<IC50 = embryotoxic, ID50 larger than IC50 = not shown): embryotoxicity is not shown
Hand1-ES ID50 (50% inhibitory concentration for differentiation) [2]: 85.3 µg/mL
IC50 [3, 4]: 54 µg/mL (≈ 760 µM)

O=C1O[C@H]([C@@H](O)CO)C(O)=C1O [ascorbic acid]
Embryotoxicity assessment from comparing Hand1-ES ID50 with 3T3 IC50 [2]: embryotoxicity is not shown
Hand1-ES ID50 (50% inhibitory concentration for differentiation) [2]: 28.3 µg/mL
IC50 [3]: 2 µg/mL (≈ 11.4 µM)

C[C@@H]1C[C@H]2[C@@H]3CCC4=CC(=O)C=C[C@]4(C)[C@@]3(F)[C@@H](O)C[C@]2(C)[C@@]1(O)C(=O)CO [dexamethasone]
in vivo embryotoxicity [1]: positive
Embryotoxicity assessment from comparing Hand1-ES ID50 with 3T3 IC50 [2]: has embryotoxicity
Hand1-ES ID50 (50% inhibitory concentration for differentiation) [2]: 15.6 µg/mL
IC50 [3, 4]: 36.7 µg/mL (≈ 93.5 µM)

NC(=O)NO [hydroxyurea]
Embryotoxicity assessment from comparing Hand1-ES ID50 with 3T3 IC50 [2]: has embryotoxicity
Hand1-ES ID50 (50% inhibitory concentration for differentiation) [2]: 2.5 µg/mL
IC50 [3, 4]: 4.7 µg/mL (≈ 61.8 µM)
